Literature values as cited in publication PMC2751796 (Pharmacology & therapeutics, 2009).
Where two headings read alike, the source gives them in different places.

Legend:
[1] = system: MRPs, organic anion transporters; details: ref Deguchi et al., 2000; cited from earlier work
P-gp [2] = molecular target: P-gp (Rattus norvegicus, UniProt Q6PSM0); details: cited from earlier work; for Increase in brain-to-plasma AUC ratio with elacridar: studies in rats (so in the source), ref Barraud de Lagerie et al., 2004
Chain of P-gp (Rattus norvegicus, UniProt Q6PSM0) (Q6PSM0 1-1272): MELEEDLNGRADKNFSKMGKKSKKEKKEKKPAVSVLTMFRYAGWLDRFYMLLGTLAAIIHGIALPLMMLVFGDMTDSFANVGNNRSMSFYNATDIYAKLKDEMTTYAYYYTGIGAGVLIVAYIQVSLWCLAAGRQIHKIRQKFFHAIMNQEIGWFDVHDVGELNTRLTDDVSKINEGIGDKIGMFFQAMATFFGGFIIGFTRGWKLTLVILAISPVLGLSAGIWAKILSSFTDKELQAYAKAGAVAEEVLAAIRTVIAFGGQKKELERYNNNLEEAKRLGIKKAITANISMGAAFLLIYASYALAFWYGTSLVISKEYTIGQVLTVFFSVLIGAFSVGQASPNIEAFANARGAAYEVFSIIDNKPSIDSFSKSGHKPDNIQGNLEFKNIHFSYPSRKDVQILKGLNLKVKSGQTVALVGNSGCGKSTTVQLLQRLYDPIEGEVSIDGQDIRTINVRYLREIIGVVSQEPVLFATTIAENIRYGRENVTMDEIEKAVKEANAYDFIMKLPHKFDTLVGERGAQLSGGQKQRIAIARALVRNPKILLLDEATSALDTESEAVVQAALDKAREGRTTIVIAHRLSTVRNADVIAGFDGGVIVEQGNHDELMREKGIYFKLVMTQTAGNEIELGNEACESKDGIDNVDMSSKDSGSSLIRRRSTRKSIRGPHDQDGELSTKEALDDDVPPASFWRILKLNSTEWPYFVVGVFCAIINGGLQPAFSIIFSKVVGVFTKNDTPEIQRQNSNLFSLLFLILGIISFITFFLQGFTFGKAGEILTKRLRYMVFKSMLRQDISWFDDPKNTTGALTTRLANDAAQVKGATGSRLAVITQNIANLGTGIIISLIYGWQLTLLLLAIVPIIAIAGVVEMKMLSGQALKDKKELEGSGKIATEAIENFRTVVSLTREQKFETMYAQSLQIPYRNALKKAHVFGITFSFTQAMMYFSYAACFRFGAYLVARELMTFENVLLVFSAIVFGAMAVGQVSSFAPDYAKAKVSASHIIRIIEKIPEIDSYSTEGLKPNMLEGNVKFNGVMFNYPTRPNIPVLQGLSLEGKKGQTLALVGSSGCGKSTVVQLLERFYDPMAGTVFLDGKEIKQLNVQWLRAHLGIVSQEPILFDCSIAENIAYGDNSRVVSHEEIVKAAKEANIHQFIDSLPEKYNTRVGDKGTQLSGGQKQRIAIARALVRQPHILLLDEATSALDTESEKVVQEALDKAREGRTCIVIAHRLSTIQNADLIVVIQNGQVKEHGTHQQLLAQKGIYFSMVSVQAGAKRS

P-gp [3] = details: read-out: Reported EC50; ref Ekins et al., 2002; Rautio et al., 2006; cited from earlier work
[4] = cited from earlier work
P-gp [5] = details: cited from earlier work; for Fold change in brain uptake ratio in inhibitor-treated vs. control mice / Fold change in brain uptake ratio in inhibitor-treated vs. control mice (value corrected for drug in vasculature): Conc.
P-gp [6] = details: ref Hugnet et al., 1996; Mealey et al., 2001, 2003, 2008; Sartor et al., 2004; cited from earlier work
[7] = cited from earlier work; remark: listed apart in the source
P-gp [8] = details: four adult rhesus monkeys; ref Warren et al., 2000; cited from earlier work
[9] = cited from earlier work; for Increase of plasma AUC with ritonavir (200 mg twice daily, 5.5 days): ref Mukwaya et al., 2005
P-gp [10] = details: cited from earlier work
[11] = mice, cited from earlier work
hPXR = details: ref Bauer et al., 2006, cited from earlier work
P-gp [12] = details: parameter not given; ref Saito et al., 2001; cited from earlier work
P-gp and BCRP = details: ref Oostendorp et al., 2009; Chen et al., 2008; cited from earlier work
Bcrp = details: mouse, in vivo; cited from earlier work
[13] = 16 mg, eight healthy subjects, ref Sadeque et al., 2000
[14] = Valspodar (12.5 mg/kg, IV), ref Choo et al., 2000
[15] = Verapamil (12.5 mg/kg, IV), ref Choo et al., 2000
[16] = Zosuquidar (50 mg/kg, IV), ref Choo et al., 2000

Sc1ncnc2nc[nH]c12 [6-mercaptopurine]
Increase of brain-to-plasma concentration ratio with probenecid in rats [1]: up to 4.4 fold

O[C@@H](c1cc(C(F)(F)F)nc2c(C(F)(F)F)cccc12)[C@H]1CCCCN1 [(+) mefloquine, mefloquine]
Increase in brain-to-plasma AUC ratio with elacridar (P-gp [2]): 2.5 times

O[C@H](c1cc(C(F)(F)F)nc2c(C(F)(F)F)cccc12)[C@@H]1CCCCN1 [(-) mefloquine, mefloquine]
Increase in brain-to-plasma AUC ratio with elacridar (P-gp [2]): 1.5 times

O=c1[nH]cnc2c1ncn2[C@H]1CC[C@@H](CO)O1 [Didanosine]
Precipitant drug concentration (plasma) ([4]; ref Tuntland et al., 1994): 0.9 to 11.3 µg/mL

CC(=O)O[C@@]12CO[C@@H]1C[C@H](O)[C@@]1(C)C(=O)[C@H](O)C3=C(C)[C@@H](OC(=O)[C@H](O)[C@@H](NC(=O)OC(C)(C)C)c4ccccc4)C[C@@](O)([C@@H](OC(=O)c4ccccc4)[C@H]21)C3(C)C [Docetaxel]
Increase in brain uptake by single oral doses of valspodar and elacridar (P-gp [5]; ref Kemper et al., 2004c): up to 2.6 fold

COc1cccc2c1C(=O)c1c(O)c3c(c(O)c1C2=O)C[C@@](O)(C(=O)CO)C[C@@H]3O[C@H]1C[C@H](N)[C@H](O)[C@H](C)O1 [Doxorubicin]
Effect of exposure in Collie and other dog breeds that naturally lack P-gp (P-gp [6]): neurological symptoms | CNS distribution in untreated subjects (ventricular CSF / plasma conc. ratio) ([7]; ref Warren et al., 2000): < 0.05 (ventricular CSF / plasma conc. ratio) | CSF concentrations alone or with intravenous cyclosporine (P-gp [8]): below the limit of detection

CC[C@H]1OC(=O)[C@H](C)[C@@H](O[C@H]2C[C@@](C)(OC)[C@@H](O)[C@H](C)O2)[C@H](C)[C@@H](O[C@@H]2O[C@H](C)C[C@H](N(C)C)[C@H]2O)[C@](C)(O)C[C@@H](C)C(=O)[C@H](C)[C@@H](O)[C@]1(C)O [Erythromycin]
EC50 (P-gp [3]): 38 µM

Cc1ccc(NC(=O)c2ccc(CN3CCN(C)CC3)cc2)cc1Nc1nccc(-c2cccnc2)n1 [Imatinib]
Enhancement of brain uptake by valspodar or zosuquidar (P-gp [5]; ref Bihorel et al., 2007): up to 3 fold | Increase in brain distribution with elacridar in WT mice (P-gp [5]; ref Breedveld et al., 2005, Oostendorp et al., 2009): up to 5 fold

CC(C)(C)NC(=O)[C@@H]1CN(Cc2cccnc2)CCN1C[C@@H](O)C[C@@H](Cc1ccccc1)C(=O)N[C@H]1c2ccccc2C[C@H]1O [Indinavir]
EC50 (P-gp [3]): > 50 µM

CCC(C)n1ncn(-c2ccc(N3CCN(c4ccc(OCC5COC(Cn6cncn6)(c6ccc(Cl)cc6Cl)O5)cc4)CC3)cc2)c1=O (centres unmarked) [Itraconazole]
EC50 (P-gp [3]): 0.5 µM

CN(C)C(=O)C(CCN1CCC(O)(c2ccc(Cl)cc2)CC1)(c1ccccc1)c1ccccc1 [Loperamide]
Increase of plasma AUC with 600 mg ritonavir ([9]; 12 healthy volunteers, ref Tayrouz et al., 2001): 2.7 fold | Increase of plasma AUC with ritonavir (200 mg twice daily, 5.5 days) [9]: 2.2 fold | Opioid-induced respiratory depression, given alone (P-gp [10]; [13]): did not produce respiratory depression | Opioid-induced respiratory depression, with quinidine sulfate (600 mg) (P-gp [10]; [13]): respiratory depression occurred | Effect of tariquidar (150 mg, iv) on plasma concentrations and CNS effects (P-gp [10]; loperamide 32 mg orally, nine healthy volunteers, ref Kurnik et al., 2008): did not significantly affect | Effect of exposure in Collie and other dog breeds that naturally lack P-gp (P-gp [6]): neurological symptoms

CNC(=O)C(CCN1CCC(O)(c2ccc(Cl)cc2)CC1)(c1ccccc1)c1ccccc1 [N-desmethyl-loperamide]
Increase of plasma AUC with ritonavir (200 mg twice daily, 5.5 days) [9]: 1.4 fold

Cc1c(O)cccc1C(=O)N[C@@H](CSc1ccccc1)[C@H](O)CN1C[C@H]2CCCC[C@H]2C[C@H]1C(=O)NC(C)(C)C [Nelfinavir]
Fold change in brain uptake ratio in inhibitor-treated vs. control mice (P-gp [5]; Elacridar (10 mg/kg, IV), ref Salama et al., 2005, Giri et al., 2008): 8.7 fold | Fold change in brain uptake ratio in inhibitor-treated vs. control mice (value corrected for drug in vasculature) (P-gp [5]; Elacridar (10 mg/kg, IV), ref Salama et al., 2005): 8.9 fold | Fold change in brain uptake ratio in inhibitor-treated vs. control mice (P-gp [5]; [14]): 10.3 fold | Fold change in brain uptake ratio in inhibitor-treated vs. control mice (value corrected for drug in vasculature) (P-gp [5]; [14]): 13.3 fold | Fold change in brain uptake ratio in inhibitor-treated vs. control mice (P-gp [5]; [15]): 1.0 (1.0), Conc. fold | Fold change in brain uptake ratio in inhibitor-treated vs. control mice (value corrected for drug in vasculature) (P-gp [5]; [15]): 1.0 (1.0), Conc. fold | Fold change in brain uptake ratio in inhibitor-treated vs. control mice (P-gp [5]; [16]): 18.1 fold | Fold change in brain uptake ratio in inhibitor-treated vs. control mice (value corrected for drug in vasculature) (P-gp [5]; [16]): 25.1 fold | Fold change in brain uptake ratio in inhibitor-treated vs. control mice (P-gp [5]; Zosuquidar (50 mg/kg, IV), ref Choo et al., 2000, listed as nelfinavir): up to 18 fold | EC50 (P-gp [3]): 1.4 to 44 µM | CNS distribution in untreated subjects (brain / plasma conc. ratio) ([7]; ref Kaddoumi et al., 2007, Eyal, et al., 2009): 0.04 | CNS distribution in untreated subjects (lumbar CSF / plasma, conc. ratio) ([7]; ref Kaddoumi et al., 2007): 0.006 | Increase in brain uptake with zosuquidar in rats (P-gp [2]; dose-dependent, ref Anderson et al., 2006): ≤ 29 fold

CC(=O)O[C@H]1C(=O)[C@@]2(C)[C@H]([C@H](OC(=O)c3ccccc3)[C@]3(O)C[C@H](OC(=O)[C@H](O)[C@@H](NC(=O)c4ccccc4)c4ccccc4)C(C)=C1C3(C)C)[C@]1(OC(C)=O)CO[C@@H]1C[C@@H]2O [Paclitaxel]
Increase in brain uptake with elacridar (P-gp [5]; elacridar plasma concentrations <900 ng/ml, ref Kemper et al., 2003): 5 fold

C=C[C@H]1C[N@@]2CC[C@H]1C[C@@H]2[C@@H](O)c1ccnc2ccc(OC)cc12 [Quinidine]
Inhibitor concentration (plasma) ([11]; 100 mg/kg, IP, ref Fromm et al., 1999): ~2 µM | Total concentration achievable in humans treated for tumors ([9]; ref Raderer & Scheithauer, 1993): 4.5 to 5.6 µM | EC50 (P-gp [3]): 2 to 55 µM

CO[C@H]1/C=C/O[C@@]2(C)Oc3c(C)c(O)c4c(O)c(c(/C=N/N5CCN(C)CC5)c(O)c4c3C2=O)NC(=O)/C(C)=C\C=C\[C@H](C)[C@H](O)[C@@H](C)[C@@H](O)[C@@H](C)[C@H](OC(C)=O)[C@@H]1C [Rifampin]
Predicted average steady state unbound plasma concentration (hPXR; 50 mg/kg, oral, for 3 days): 0.34 µg/mL

CC(C)(C)NC(=O)[C@@H]1C[C@@H]2CCCC[C@@H]2CN1C[C@@H](O)[C@H](Cc1ccccc1)NC(=O)[C@H](CC(N)=O)NC(=O)c1ccc2ccccc2n1 [Saquinavir]
Fold change in brain uptake ratio in inhibitor-treated vs. control mice (P-gp [5]; [16]): ∼ 3.0, Conc. fold | EC50 (P-gp [3]): 6.5 µM

C/C=C/C[C@@H](C)C(=O)[C@H]1C(=O)N[C@@H](C(C)C)C(=O)N(C)CC(=O)N(C)[C@@H](CC(C)C)C(=O)N[C@@H](C(C)C)C(=O)N(C)[C@@H](CC(C)C)C(=O)N[C@@H](C)C(=O)N[C@H](C)C(=O)N(C)[C@@H](CC(C)C)C(=O)N(C)[C@@H](CC(C)C)C(=O)N(C)[C@@H](C(C)C)C(=O)N1C [Valspodar]
Inhibitor concentration (brain) ([11]; 50 mg/kg, PO, ref Mayer et al., 1997): 250 ng/g

CC[C@]1(O)C[C@@H]2CN(CCc3c([nH]c4ccccc34)[C@@](C(=O)OC)(c3cc4c(cc3OC)N(C)[C@H]3[C@@](O)(C(=O)OC)[C@H](OC(C)=O)[C@]5(CC)C=CCN6CC[C@]43[C@@H]65)C2)C1 [Vinblastine]
Fold change in brain uptake ratio in P-gp KO vs. control mice (P-gp [12]): 3.3 fold | Fold change in brain uptake ratio in P-gp KO vs. control mice (value corrected for drug in vasculature) (P-gp [12]): 3.4 fold | Increase in brain uptake by valspodar and elacridar (P-gp [5]; ref Cisternino et al., 2001): 3 fold | Effect of exposure in Collie and other dog breeds that naturally lack P-gp (P-gp [6]): neurological symptoms

CC[C@]1(O)C[C@H]2CN(CCc3c([nH]c4ccccc34)[C@@](C(=O)OC)(c3cc4c(cc3OC)N(C=O)[C@H]3[C@@](O)(C(=O)OC)[C@H](OC(C)=O)[C@]5(CC)C=CCN6CC[C@]43[C@@H]65)C2)C1 [Vincristine]
Effect of exposure in Collie and other dog breeds that naturally lack P-gp (P-gp [6]): neurological symptoms

Cc1cn([C@H]2C[C@H](N=[N+]=[N-])[C@@H](CO)O2)c(=O)[nH]c1=O [Zidovudine]
Precipitant drug concentration (CSF) ([4]; ref Tuntland et al., 1994): 0.1 to 2.2 µg/mL | Precipitant drug concentration (plasma) ([4]; ref Tuntland et al., 1994): 0.5 to 11.2 µg/mL

O[C@@H](COc1cccc2ncccc12)CN1CCN([C@@H]2c3ccccc3[C@@H]3[C@H](c4ccccc42)C3(F)F)CC1 [Zosuquidar]
Precipitant drug concentration (CSF) ([4]; in vivo): 0.0085 µg/mL

Cc1nc(Nc2ncc(C(=O)Nc3c(C)cccc3Cl)s2)cc(N2CCN(CCO)CC2)n1 [dasatinib]
Increase of brain-to-plasma concentration ratio in triple KO mice (P-gp and BCRP): 10 fold

CCC(=O)C(CC(C)N(C)C)(c1ccccc1)c1ccccc1 (centres unmarked) [methadone]
Decrease of antinociceptive effect after rifampin (hPXR; hPXR transgenic mice, vs. vehicle): 70%

CCCN(CCC)S(=O)(=O)c1ccc(C(=O)O)cc1 [probenecid]
Probenecid CSF concentrations at 2500 mg/m^2 ([9]; ref Bode et al., 1980): 2.4 to 3.4 µg/mL

CC(C)(C)c1ccc(C(O)CCCN2CCC(C(O)(c3ccccc3)c3ccccc3)CC2)cc1 (centres unmarked) [terfenadine]
Increase in brain uptake with cyclosporine in rats (P-gp [2]; ref Obradovic et al., 2007): several-fold

CC[C@@]1(O)C(=O)OCc2c1cc1n(c2=O)Cc2cc3c(CN(C)C)c(O)ccc3nc2-1 [topotecan lactone]
Decrease of ventricular CSF-to-plasma AUC ratio with gefitinib (Bcrp): 17%

[^18F]-Paclitaxel
CNS distribution in untreated subjects (brain / metabolite-corrected plasma AUC ratio) ([7]; ref Kurdziel et al., 2003): 0.05 (brain / metabolite-corrected plasma AUC ratio)
